In patent publication EP3095787A1, “[…] ACTIVE COMPOUNDS AS DAG-LIPASE INHIBITORS” (Universiteit Leiden, priority 2015, dated 2016):
“Also recorded” adds a separate entry of the source.

Key:
FAAH = details: reported value; cited from earlier work
DAGL-α = target: T1, DAGL-α (Mus musculus, UniProt Q6WQJ1); assay: Competitive ABPP with MB064 on endogenous DAGL-α in mouse brain membrane proteome; type: biochemical; details: MB064 250 nM, n=3, read-out: pIC50 of DAGL-α labeling by MB064 (converted)
T1 construct: endogenously expressed DAGL-α in mouse membrane proteome; from tissue; host or cells: mouse brain membrane proteome
T1 sequence (Q6WQJ1 1-1044): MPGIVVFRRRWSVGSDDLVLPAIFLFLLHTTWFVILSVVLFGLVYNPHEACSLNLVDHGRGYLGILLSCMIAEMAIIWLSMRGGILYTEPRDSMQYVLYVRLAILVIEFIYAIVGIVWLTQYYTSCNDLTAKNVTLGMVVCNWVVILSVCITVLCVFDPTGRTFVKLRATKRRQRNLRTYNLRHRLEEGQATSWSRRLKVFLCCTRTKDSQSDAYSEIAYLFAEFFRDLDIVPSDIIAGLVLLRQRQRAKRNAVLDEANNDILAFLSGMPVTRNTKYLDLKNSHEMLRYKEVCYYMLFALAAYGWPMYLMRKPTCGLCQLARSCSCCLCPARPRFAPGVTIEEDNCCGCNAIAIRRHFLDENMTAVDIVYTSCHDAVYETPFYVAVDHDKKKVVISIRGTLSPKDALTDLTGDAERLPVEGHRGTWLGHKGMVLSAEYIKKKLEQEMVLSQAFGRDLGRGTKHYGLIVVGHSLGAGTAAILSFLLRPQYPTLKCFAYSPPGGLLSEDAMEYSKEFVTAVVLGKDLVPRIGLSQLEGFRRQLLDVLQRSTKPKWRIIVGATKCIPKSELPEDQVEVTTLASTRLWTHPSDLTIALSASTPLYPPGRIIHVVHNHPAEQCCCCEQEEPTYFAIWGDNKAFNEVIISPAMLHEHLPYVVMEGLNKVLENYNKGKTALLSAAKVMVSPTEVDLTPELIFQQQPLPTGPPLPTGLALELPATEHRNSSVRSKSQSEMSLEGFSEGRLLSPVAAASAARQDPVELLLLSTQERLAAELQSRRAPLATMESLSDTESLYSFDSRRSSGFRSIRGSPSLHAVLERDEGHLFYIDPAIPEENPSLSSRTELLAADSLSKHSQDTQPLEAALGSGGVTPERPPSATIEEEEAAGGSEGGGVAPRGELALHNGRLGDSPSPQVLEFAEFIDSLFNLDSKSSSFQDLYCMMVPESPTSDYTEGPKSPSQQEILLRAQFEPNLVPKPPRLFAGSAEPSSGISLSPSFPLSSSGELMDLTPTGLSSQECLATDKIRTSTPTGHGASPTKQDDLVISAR
From the text: To test its activity on endogenously expressed DAGL-α in mouse membrane proteome, an ABPP assay with MB064, a specific β-lactone-containing probe, which was tailor-made for the detection of DAGL-α activity, was used. An alkyne group was introduced in the prototypical DAGL-inhibitor tetrahydrolipstatin (THL) and conjugated this covalent, irreversible inhibitor via copper-catalyzed click chemistry to a BODIPY-acid as a fluorencent reporter group to yield tailor-made probe MB064.

DAGL-β = target: T2, DAGL-β (Mus musculus, UniProt Q91WC9); assay: Competitive ABPP with MB064 in mouse spleen membrane proteome; type: biochemical; details: 10 µM compound, MB064 1.0 µM
T2 construct: from tissue; host or cells: mouse spleen membrane proteome
T2 sequence (Q91WC9 1-669): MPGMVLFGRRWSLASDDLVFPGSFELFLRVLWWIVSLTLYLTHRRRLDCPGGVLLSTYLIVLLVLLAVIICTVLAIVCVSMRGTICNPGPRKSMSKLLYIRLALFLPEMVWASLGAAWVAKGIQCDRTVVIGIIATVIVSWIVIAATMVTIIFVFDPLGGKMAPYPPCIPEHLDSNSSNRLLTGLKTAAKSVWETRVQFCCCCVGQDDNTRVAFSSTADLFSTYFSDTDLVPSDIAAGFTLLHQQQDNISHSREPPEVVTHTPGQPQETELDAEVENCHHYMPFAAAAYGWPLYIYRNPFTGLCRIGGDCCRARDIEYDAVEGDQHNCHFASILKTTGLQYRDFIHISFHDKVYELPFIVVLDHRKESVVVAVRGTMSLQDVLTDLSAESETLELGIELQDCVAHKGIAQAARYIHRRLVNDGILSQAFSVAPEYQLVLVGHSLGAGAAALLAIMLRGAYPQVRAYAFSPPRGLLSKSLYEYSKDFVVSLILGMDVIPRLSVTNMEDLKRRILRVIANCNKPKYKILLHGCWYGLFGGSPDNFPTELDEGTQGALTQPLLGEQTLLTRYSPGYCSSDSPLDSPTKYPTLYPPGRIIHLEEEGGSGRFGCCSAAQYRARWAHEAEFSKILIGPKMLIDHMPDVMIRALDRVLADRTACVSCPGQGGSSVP

serine hydrolases = assay: Comparative and competitive gel ABPP selectivity in mouse brain membrane proteome (TAMRA-FP and MB064); type: biochemical; details: 10 µM; TAMRA-FP 500 nM and MB064 250 nM
Protocol: For gel based ABPP experiments mouse brain proteome (2.0 mg/mL, 20 µL) was preincubated for 30 min with vehicle (DMSO) or compound to be tested in 0.5 µL DMSO at rt. And subsequently treated with 500 nM (final concentration) TAMRA-FP (TAMRA-FP was bought at Thermo Fischer) for 15 minutes at rt. The reactions were quenched with 10 µL standard 3 x SDS page sample buffer. The samples were directly loaded and resolved on SDS page gel (10 % acrylamide). The gels were scanned with a ChemiDoc MP sytem (Biorad, Cy 3 settings, 605/50 filter) and analyzed using Image Lab 4.1.
To investigate the selectivity of compound 25 in the mouse brain proteome comparative and competitive ABPP was used with a broad-spectrum FP-based probe (TAMRA-FP) and the tailored DAGL-α ABP MB064. As a reference the widely used β-lactone-based DAGL-inhibitors THL and OMDM-188, two broad-spectrum covalent and irreversible serine hydrolase inhibitors, were firstly tested.

| IC50 (DAGL-α) [nM] | Compound | FAAH Activity assay reported pKi (FAAH) | Native DAGL-β activity (labeling by MB064) (DAGL-β) | labeling of other bands (selectivity) (serine hydrolases) |
| --- | --- | --- | --- | --- |
| – | O=C(CCCCCc1ccccc1)c1nc2ncccc2o1 [Compound 1, 1-(Oxazolo[4,5-b]pyridin-2-yl)-6-phenylhexan-1-one, reference compound] | 9.70 | – | – |
| 31.6 | Cc1ccc(-c2cnc3nc(C(=O)CCCCCc4ccccc4)oc3c2)cc1 [Compound 25, 1-(6-(p-Tolyl)oxazolo[4,5-b]pyridin-2-yl)-6-phenylhexan-1-one] | – | can block labeling of endogenously expressed DAGL-β; also recorded: could also be inhibited | excellent selectivity; also recorded: did not inhibit labeling of any other band |
